T/C data for 18 compounds are collected here from PubChem BioAssay AID280 (DTP/NCI, 2004).

“And” between values parts separate entries of the source, which are not always exact repeats. Identical values can stand only once. Toxic doses and inconclusive results are not listed.

The experiment relates to nude mice, LOX melanoma ip, survival T/C. Kind of experiment: NCI In Vivo Anticancer Drug Screen. Data for tumor model Human Amelanotic Melanoma (LOX) (intraperitoneal) in NU/NU BALB/C (nude) mice. As to conditions: endpoint: median survival time, schedule: Q04DX003 (ip), higher = longer survival. On the procedure:
The antitumor activity of compounds was measured in mice bearing transplantable tumors. Survival or tumor size were measured and the results are expressed as the measurement made in the treated group (T) divided by the measurement made in the vehicle treated control group (C). The tumor model used in this assay is Human Amelanotic Melanoma (LOX) (intraperitoneal) in NU/NU BALB/C (nude) mice

The mark [1] stands for this setting: dose: 75.0 mg/kg/injection, vehicle: saline with Tween-80.
Where [2] appears, read: dose: 150.0 mg/kg/injection, vehicle: saline with Tween-80.
[3] abbreviates: dose: 0.63 mg/kg/injection, vehicle: saline.
Setting [4] is: dose: 2.5 mg/kg/injection, vehicle: saline.
Where [5] appears, read: dose: 5.0 mg/kg/injection, vehicle: saline.
[6] abbreviates: dose: 150.0 mg/kg/injection, vehicle: Klucel (hydroxypropylcellulose) (HPC).
The mark [7] stands for this setting: dose: 600.0 mg/kg/injection, vehicle: Klucel (hydroxypropylcellulose) (HPC).
[8] abbreviates: dose: 100.0 mg/kg/injection, vehicle: saline with Tween-80.
The mark [9] stands for this setting: dose: 200.0 mg/kg/injection, vehicle: saline with Tween-80.
Where [10] appears, read: dose: 400.0 mg/kg/injection, vehicle: saline with Tween-80.
[11] abbreviates: dose: 800.0 mg/kg/injection, vehicle: saline with Tween-80.
[12] abbreviates: dose: 75.0 mg/kg/injection, vehicle: DMSO.
The mark [13] stands for this setting: dose: 150.0 mg/kg/injection, vehicle: DMSO.
The mark [14] stands for this setting: dose: 300.0 mg/kg/injection, vehicle: DMSO.
The mark [15] stands for this setting: dose: 600.0 mg/kg/injection, vehicle: DMSO.
Where [16] appears, read: dose: 1200.0 mg/kg/injection, vehicle: DMSO.
Where [17] appears, read: dose: 50.0 mg/kg/injection, vehicle: saline with Tween-80.
Where [18] appears, read: dose: 75.0 mg/kg/injection, vehicle: Klucel (hydroxypropylcellulose) (HPC).

`COc1cccc(Sc2ccc([N+](=O)[O-])c3no[n+]([O-])c23)c1`: the T/C (dose: 37.5 mg/kg/injection, vehicle: saline with Tween-80) is 101 % of control; the T/C under setting [1] was 120 % of control; the T/C under setting [2] was 89 % of control; the T/C (dose: 300.0 mg/kg/injection, vehicle: saline with Tween-80) is 101 % of control.
For `[Cl][Hg][Cl]`, the T/C under setting [3] is 88 % of control and 96 % of control; the T/C under setting [4] was 95 % of control; the T/C under setting [5] was 91 % of control.
For `Cc1cc(=NO)cc(C)n1O`, the T/C reads like this: (dose: 75.0 mg/kg/injection, vehicle: distilled water + alcohol) 101 % of control; (dose: 150.0 mg/kg/injection, vehicle: distilled water + alcohol) 103 % of control; (dose: 300.0 mg/kg/injection, vehicle: distilled water + alcohol) 101 % of control; (dose: 600.0 mg/kg/injection, vehicle: distilled water + alcohol) 96 % of control.
Consider `[CH3][Sn]([CH3])([Cl])[c]1cc[c]([Sn]([CH3])([CH3])[Cl])cc1`, for which the T/C reads like this: under setting [3], 91 % of control; (dose: 1.25 mg/kg/injection, vehicle: saline) 103 % of control; under setting [4], 98 % of control; under setting [5], 107 % of control.
In the case of `CC(/C=C/C=C/C=C/C=C/C=C/C(O)=C1/C(=O)C(CCC(=O)O)N(C)C1=O)=C\C(C)C(OC1CC(O)C(O)C(C)O1)C(C)C` (configuration not stated), the T/C is, setting by setting: (dose: 8.3 mg/kg/injection, vehicle: water) 114 % of control; (dose: 13.8 mg/kg/injection, vehicle: water) 114 % of control; (dose: 16.0 mg/kg/injection, vehicle: water) 150 % of control; (dose: 32.0 mg/kg/injection, vehicle: water) 168 % of control; (dose: 107.0 mg/kg/injection, vehicle: water) 116 % of control.
In the case of `O=C1CNC(=O)N1CN1CCOCC1`, the T/C under setting [6] was 177 % of control and the T/C under setting [7] was 152 % of control.
On to `CCCSc1nc(COC(=O)NC)c(COC(=O)NC)n1C`, for which the T/C by setting is: (dose: 30.0 mg/kg/injection, vehicle: saline) 113 % of control; (dose: 60.0 mg/kg/injection, vehicle: saline) 110 % of control; (dose: 120.0 mg/kg/injection, vehicle: saline) 90 % of control; (dose: 240.0 mg/kg/injection, vehicle: saline) 98 % of control.
Turning to `COc1cc2c(c(OC)c1OC)-c1ccc(SC)c(=O)cc1[C@@H](NC(C)=O)CC2`, the T/C is, setting by setting: (dose: 0.25 mg/kg/injection, vehicle: Klucel (hydroxypropylcellulose) (HPC)) 163 % of control; (dose: 0.5 mg/kg/injection, vehicle: Klucel (hydroxypropylcellulose) (HPC)) 172 % of control and 196 % of control; (dose: 0.82 mg/kg/injection, vehicle: Klucel (hydroxypropylcellulose) (HPC)) 173 % of control; (dose: 1.38 mg/kg/injection, vehicle: Klucel (hydroxypropylcellulose) (HPC)) 193 % of control.
Take `CNC(=O)N(C)N=NCCCl`: the T/C is 201 % of control under setting [8], 309 % of control under setting [9], 309 % of control under setting [10] and 309 % of control under setting [11].
In the case of `Cc1ccccc1N=C(c1ccccc1)C1C(=O)c2ccccc2C1=O`, the T/C under setting [12] is 101 % of control; the T/C (dose: 75.0 mg/kg/injection, vehicle: other) is 105 % of control; the T/C under setting [13] is 109 % of control; the T/C (dose: 150.0 mg/kg/injection, vehicle: other) is 93 % of control; the T/C under setting [14] is 101 % of control; the T/C (dose: 300.0 mg/kg/injection, vehicle: other) was 103 % of control. In addition, the T/C is 103 % of control under setting [15]; 103 % of control (dose: 600.0 mg/kg/injection, vehicle: other); 99 % of control under setting [16]; 102 % of control (dose: 1200.0 mg/kg/injection, vehicle: other).
For `Cc1ccoc1`, the T/C (dose: 25.0 mg/kg/injection, vehicle: saline with Tween-80) was 94 % of control; the T/C under setting [17] was 95 % of control; the T/C under setting [8] is 102 % of control; the T/C under setting [9] was 95 % of control; the T/C under setting [10] was 96 % of control.
As to `CCOC(=O)/C=C/C(=O)N1CCN(C(=O)/C=C/C(=O)OCC)C(C)C1` (configuration not stated), the T/C was 117 % of control under setting [18]; 109 % of control under setting [6]; 108 % of control (dose: 300.0 mg/kg/injection, vehicle: Klucel (hydroxypropylcellulose) (HPC)); 116 % of control under setting [7].
On to `CC(=O)/C(=C\c1ccc(/C=C(\C(C)=O)C(=O)CCN(C)C)cc1)C(=O)CCN(C)C`, for which the T/C runs as follows: under setting [17], 94 % of control; under setting [8], 100 % of control; under setting [9], 105 % of control; under setting [10], 107 % of control; under setting [11], 111 % of control.
On to `CCCCCNc1ncnc2c(C)[nH]nc12`, for which the T/C (dose: 18.75 mg/kg/injection, vehicle: Klucel (hydroxypropylcellulose) (HPC)) is 103 % of control; the T/C (dose: 37.5 mg/kg/injection, vehicle: Klucel (hydroxypropylcellulose) (HPC)) was 94 % of control; the T/C under setting [18] was 98 % of control; the T/C under setting [6] was 94 % of control.
Regarding `O=C(O)Cc1cccc(=O)c(O)c1C(=O)O`, the T/C by setting is: under setting [1], 97 % of control; under setting [2], 94 % of control.
With `O=C(CN1CCOCC1)Nc1nc(-c2ccc(Cl)cc2)cs1`, the T/C runs as follows: under setting [12], 119 % of control; under setting [13], 112 % of control; under setting [14], 88 % of control; under setting [15], 95 % of control; under setting [16], 92 % of control.
As to `CC1Oc2cc3c(-c4c(O)cc(O)c5c(O)c6c(cc45)OC(C)C(C)C6=O)c(O)cc(O)c3c(O)c2C(=O)C1C` (configuration not stated), the T/C is 124 % of control (dose: 1.0 mg/kg/injection, vehicle: suspension in saline) and 152 % of control (dose: 4.0 mg/kg/injection, vehicle: suspension in saline).
Consider `O=C1C=C(N2CC2)C(=O)C(N2CC2)=C1N1CC1`, for which the T/C was 177 % of control (dose: 25.0 micrograms/kg/injection, vehicle: saline); 116 % of control (dose: 43.0 micrograms/kg/injection, vehicle: saline); 220 % of control (dose: 100.0 micrograms/kg/injection, vehicle: saline); 158 % of control (dose: 120.0 micrograms/kg/injection, vehicle: saline); 277 % of control (dose: 200.0 micrograms/kg/injection, vehicle: saline); 187 % of control (dose: 333.0 micrograms/kg/injection, vehicle: saline).
